Where a name gives a salt, the structure may show the parent alone.

The test system of one assay is PC12 cells. Put plainly: Survival rate of PC12 cells in the okadaic acid-induced injury model (CCK-8). Format: cell-based. Particulars: Rattus norvegicus, PC-12, 24 h, compound 5 μmol/L, 2 h, then okadaic acid 50 nmol/L, 24 h, PC12 cells. The protocol: PC12 cells were detached and counted. A cell suspension was prepared at 8.0×10^4 cells/mL. 100 μL of the cell suspension was added to each well of a 96-well cell culture plate. The 96-well cell culture plate was placed in an incubator at 37° C. in 5% CO2 and cultured for 24 h. In an experimental group, the PC12 cells were pre-incubated for 2 h in a culture medium containing a test compound (the concentrations of the compound were 0.1 μmol/L, 0.5 μmol/L, 1 μmol/L, 5 μmol/L, and 10 μmol/L respectively, and the concentrations of the compound were set according to the concentrations in Table 5, Table 6, Table 7, and Table 8). […] In addition, a negative control group (no test compound or okadaic acid added) and a model group (only okadaic acid added) were set. The 96-well cell culture plate was placed in an incubator at 37° C. in 5% CO2 and cultured for 24 h. The cells in the 96-well cell culture plate were stained with 10 μL of CCK-8 in each well, and then cultured in the incubator for 1 h to 2 h. The 96-well cell culture plate was shaken gently for 10 min to mix uniformly and remove bubbles from the 96-well cell culture plate. The OD value of each well at 2=450 nm was read by using a microplate reader. A survival rate of cells was calculated.
Calculation formula for the cell survival rate: […]
The effect of each compound on the survival rate of PC12 cells in the okadaic acid- and Aβ1-42-induced injury models was determined by the CCK-8 cell proliferation assay.
In the case of `CCOCc1cc2oc(=N)c3ccccc3n2n1` [Compound 3, 2-(ethoxymethyl)-5H-benzo[d]pyrazolo[5,1-b][1,3]oxazin-5-imine], the viability at 5 µM worked out at 66%.

As for `CCCOCc1cc2oc(=N)c3ccccc3n2n1` [Compound 4, 2-(propoxymethyl)-5H-benzo[d]pyrazolo[5,1-b][1,3]oxazin-5-imine], the viability at 5 µM is 65.9%.

On to `N=c1oc2cc(COC=O)nn2c2ccccc12` [Compound 5, (5-imino-5H-benzo[d]pyrazolo[5,1-b][1,3]oxazin-2-yl)methyl formate], for which the viability at 5 µM turned out to be 65.6%.

Take `CC(=O)OCc1cc2oc(=N)c3ccccc3n2n1` [Compound 6, (5-imino-5H-benzo[d]pyrazolo[5,1-b][1,3]oxazin-2-yl)methyl acetate]: the viability at 5 µM is 68.4%.

Regarding `CSCc1cc2oc(=N)c3ccccc3n2n1` [Compound 7, 2-((methylthio)methyl)-5H-benzo[d]pyrazolo[5,1-b][1,3]oxazin-5-imine], the viability at 5 µM came out at 70.8%.

In turn, `COCc1cc2oc(=N)c3ccc(C)cc3n2n1` [Compound 8, 2-(methoxymethyl)-8-methyl-5H-benzo[d]pyrazolo[5,1-b][1,3]oxazin-5-imine] came in with a viability at 5 µM of 67.5%.

`CCc1ccc2c(=N)oc3cc(COC)nn3c2c1` [Compound 9, 2-(methoxymethyl)-8-ethyl-5H-benzo[d]pyrazolo[5,1-b][1,3]oxazin-5-imine] showed a viability at 5 µM of 65.6%.

`COCc1cc2oc(=N)c3ccc(F)cc3n2n1` [Compound 10, 2-(methoxymethyl)-8-fluoro-5H-benzo[d]pyrazolo[5,1-b][1,3]oxazin-5-imine] yielded a viability at 5 µM of 64.8%.

Compound `COCc1cc2oc(=N)c3cc(F)ccc3n2n1` [Compound 11, 2-(methoxymethyl)-7-fluoro-5H-benzo[d]pyrazolo[5,1-b][1,3]oxazin-5-imine] yielded a viability at 5 µM of 66%.

With `COCc1cc2oc(=N)c3cc(Cl)ccc3n2n1` [Compound 12, 2-(methoxymethyl)-7-chloro-5H-benzo[d]pyrazolo[5,1-b][1,3]oxazin-5-imine], the viability at 5 µM amounted to 66.7%.

The compound `COCc1cc2oc(=N)c3cc(OC)ccc3n2n1` [Compound 13, 2-(methoxymethyl)-7-methoxy-5H-benzo[d]pyrazolo[5,1-b][1,3]oxazin-5-imine] had a viability at 5 µM of 67.7%.

Compound `CCOc1ccc2c(c1)c(=N)oc1cc(COC)nn12` [Compound 14, 2-(methoxymethyl)-7-ethoxy-5H-benzo[d]pyrazolo[5,1-b][1,3]oxazin-5-imine] gave a viability at 5 µM of 66.7%.

In turn, `CCOCc1cc2oc(=N)c3cc(F)ccc3n2n1` [Compound 15, 2-(ethoxymethyl)-7-fluoro-5H-benzo[d]pyrazolo[5,1-b][1,3]oxazin-5-imine] showed a viability at 5 µM of 67.1%.

As for `CCCOCc1cc2oc(=N)c3cc(F)ccc3n2n1` [Compound 16, 2-(propoxymethyl)-7-fluoro-5H-benzo[d]pyrazolo[5,1-b][1,3]oxazin-5-imine], the viability at 5 µM was 66.9%.

Consider `COCCc1cc2oc(=N)c3ccc(F)cc3n2n1` [Compound 17, 2-(methoxyethyl)-8-fluoro-5H-benzo[d]pyrazolo[5,1-b][1,3]oxazin-5-imine], for which the viability at 5 µM is 67.9%.

The same assay, now with this note: compound 5 μmol/L, 2 h, then okadaic acid 50 nmol/L, 24 h, PC12 cells.
With `CCOCc1cc2oc(=N)c3ccccc3n2n1` [Compound 3, 2-(ethoxymethyl)-5H-benzo[d]pyrazolo[5,1-b][1,3]oxazin-5-imine], the “OD value at 450 nm, Mean ± SD” value stood at 0.858 ± 0.009.

As to `CCCOCc1cc2oc(=N)c3ccccc3n2n1` [Compound 4, 2-(propoxymethyl)-5H-benzo[d]pyrazolo[5,1-b][1,3]oxazin-5-imine], the “OD value at 450 nm, Mean ± SD” value was determined as 0.856 ± 0.012.

Consider `N=c1oc2cc(COC=O)nn2c2ccccc12` [Compound 5, (5-imino-5H-benzo[d]pyrazolo[5,1-b][1,3]oxazin-2-yl)methyl formate], for which the “OD value at 450 nm, Mean ± SD” value came to 0.852 ± 0.004.

For the compound `CC(=O)OCc1cc2oc(=N)c3ccccc3n2n1` [Compound 6, (5-imino-5H-benzo[d]pyrazolo[5,1-b][1,3]oxazin-2-yl)methyl acetate], the “OD value at 450 nm, Mean ± SD” value is 0.889 ± 0.007.

`CSCc1cc2oc(=N)c3ccccc3n2n1` [Compound 7, 2-((methylthio)methyl)-5H-benzo[d]pyrazolo[5,1-b][1,3]oxazin-5-imine]: the “OD value at 450 nm, Mean ± SD” value is listed as 0.919 ± 0.008.

As for `COCc1cc2oc(=N)c3ccc(C)cc3n2n1` [Compound 8, 2-(methoxymethyl)-8-methyl-5H-benzo[d]pyrazolo[5,1-b][1,3]oxazin-5-imine], the “OD value at 450 nm, Mean ± SD” value stood at 0.877 ± 0.009.

Turning to `CCc1ccc2c(=N)oc3cc(COC)nn3c2c1` [Compound 9, 2-(methoxymethyl)-8-ethyl-5H-benzo[d]pyrazolo[5,1-b][1,3]oxazin-5-imine], the “OD value at 450 nm, Mean ± SD” value is recorded as 0.852 ± 0.010.

For `COCc1cc2oc(=N)c3ccc(F)cc3n2n1` [Compound 10, 2-(methoxymethyl)-8-fluoro-5H-benzo[d]pyrazolo[5,1-b][1,3]oxazin-5-imine], the “OD value at 450 nm, Mean ± SD” value is recorded as 0.842 ± 0.008.

As for `COCc1cc2oc(=N)c3cc(F)ccc3n2n1` [Compound 11, 2-(methoxymethyl)-7-fluoro-5H-benzo[d]pyrazolo[5,1-b][1,3]oxazin-5-imine], the “OD value at 450 nm, Mean ± SD” value amounted to 0.857 ± 0.007.

Take `COCc1cc2oc(=N)c3cc(Cl)ccc3n2n1` [Compound 12, 2-(methoxymethyl)-7-chloro-5H-benzo[d]pyrazolo[5,1-b][1,3]oxazin-5-imine]: the “OD value at 450 nm, Mean ± SD” value is reported as 0.866 ± 0.003.

Regarding `COCc1cc2oc(=N)c3cc(OC)ccc3n2n1` [Compound 13, 2-(methoxymethyl)-7-methoxy-5H-benzo[d]pyrazolo[5,1-b][1,3]oxazin-5-imine], the “OD value at 450 nm, Mean ± SD” value amounted to 0.879 ± 0.009.

For `CCOc1ccc2c(c1)c(=N)oc1cc(COC)nn12` [Compound 14, 2-(methoxymethyl)-7-ethoxy-5H-benzo[d]pyrazolo[5,1-b][1,3]oxazin-5-imine], the “OD value at 450 nm, Mean ± SD” value was found to be 0.866 ± 0.011.

For the compound `CCOCc1cc2oc(=N)c3cc(F)ccc3n2n1` [Compound 15, 2-(ethoxymethyl)-7-fluoro-5H-benzo[d]pyrazolo[5,1-b][1,3]oxazin-5-imine], the “OD value at 450 nm, Mean ± SD” value was 0.872 ± 0.012.

Regarding `CCCOCc1cc2oc(=N)c3cc(F)ccc3n2n1` [Compound 16, 2-(propoxymethyl)-7-fluoro-5H-benzo[d]pyrazolo[5,1-b][1,3]oxazin-5-imine], the “OD value at 450 nm, Mean ± SD” value is 0.869 ± 0.005.

On to `COCCc1cc2oc(=N)c3ccc(F)cc3n2n1` [Compound 17, 2-(methoxyethyl)-8-fluoro-5H-benzo[d]pyrazolo[5,1-b][1,3]oxazin-5-imine], for which the “OD value at 450 nm, Mean ± SD” value was 0.882 ± 0.005.

The values are drawn from patent US20260335329A1, “PROTEIN PHOSPHATASE AGONIST AND USE” (priority 2022, published 2026).
